Test results reported in patent US20150045553A1, “PHENYLTRIAZOLE DERIVATIVE” (TOSHO PHARMACEUTICAL CO., LTD, priority 2011, published 2015).
pIC50: −log10 of the molar value. Counter-ions that a name gives are not always drawn.

Molecular target: T1, H3 receptor (Rattus norvegicus, UniProt Q9QYN8)
T1 construct: The frontal cortex dissected from rats was homogenized; from tissue; host or cells: rat frontal cortex membrane fraction
Assay: Rat H3 receptor binding test (N-α-methyl[3H]histamine, frontal cortex membrane fraction)
Details: N-α-methyl[3H]histamine 0.75 nM, room temperature, an hour
Procedure: (Test 1: Rat H3 Receptor Binding Test)
The frontal cortex dissected from rats was homogenized with a Teflon (registered trademark) homogenizer in a 50 mM Tris-HCl buffer solution (pH 7.4) containing a protease inhibitor (Complete EDTA-free; Roche Diagnostics) and 5 mM EDTA. The homogenate was centrifuged at 48,000×g for 15 minutes. The supernatant was removed and the pellet was suspended in a 50 mM Tris-HCl buffer solution (pH 7.4) containing 5 mM EDTA and centrifuged at 48,000×g for 15 minutes. The supernatant was removed and the pellet was suspended in a 50 mM Tris-HCl buffer solution (pH 7.4) containing 5 mM EDTA to give a membrane fraction. The membrane fraction (the protein content in the final reaction mixture: 75 μg), N-α-methyl[^3H]histamine (PerkinElmer; final concentration: 0.75 nM) and a test drug were mixed and subjected to reaction at room temperature for an hour. After the end of the reaction, the reaction mixture was suction filtered through a 96-well GF/C filter plate pretreated with 0.3% polyethyleneimine; the filters were then washed five times with a 50 mM Tris-HCl buffer solution (pH 7.4) containing 5 mM EDTA. After the washing, the filters were dried and a scintillator was added to measure the residual radioactivity on the filter with TopCount (PerkinElmer).
The residual radioactivity in the presence of 10 μM thioperamide was taken as indicative of nonspecific binding and the difference from the residual radioactivity in the absence of thioperamide was taken as indicative of specific binding. Each of the test drugs was dissolved and diluted in DMSO at varying concentrations to plot a dose-response curve from the corresponding residual radioactivities; the concentration of test drug that inhibited the specific binding by 50% (IC50) was determined from this curve.

T1 sequence (Q9QYN8 whole entry): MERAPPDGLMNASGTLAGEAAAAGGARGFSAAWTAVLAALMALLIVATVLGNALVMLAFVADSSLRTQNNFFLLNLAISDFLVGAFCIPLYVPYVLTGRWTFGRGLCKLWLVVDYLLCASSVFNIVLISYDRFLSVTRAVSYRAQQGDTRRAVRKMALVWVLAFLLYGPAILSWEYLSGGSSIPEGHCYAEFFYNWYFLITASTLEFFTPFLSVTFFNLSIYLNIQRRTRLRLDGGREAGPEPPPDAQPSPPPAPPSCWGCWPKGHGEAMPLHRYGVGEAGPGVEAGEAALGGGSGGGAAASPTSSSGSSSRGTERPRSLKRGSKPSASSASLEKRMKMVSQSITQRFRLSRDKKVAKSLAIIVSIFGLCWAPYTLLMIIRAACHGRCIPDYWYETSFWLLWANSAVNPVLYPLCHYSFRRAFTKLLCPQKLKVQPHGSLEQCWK

Row | pIC50 | SMILES
1 | 7.85 | O=C(c1cn(-c2ccc(OC3CCN(C4CCC4)CC3)cc2)nn1)N1CCC1 [Compound No. 18, azetidin-1-yl(1-{4-[(1-cyclobutylpiperidin-4-yl)oxy]phenyl}-1H-1,2,3-triazol-4-yl)methanone]
2 | 8.26 | CN(C)C(=O)c1cn(-c2ccc(OC3CCN(C4CCC4)CC3)cc2)nn1 [Compound No. 26, 1-{4-[(1-cyclobutylpiperidin-4-yl)oxy]phenyl}-N,N-dimethyl-1H-1,2,3-triazole-4-carboxamide]
3 | 7.96 | NC(=O)c1ncn(-c2ccc(OC3CCN(C4CCC4)CC3)cc2)n1 [Compound No. 39, 1-{4-[(1-cyclobutylpiperidin-4-yl)oxy]phenyl}-1H-1,2,4-triazole-3-carboxamide]
4 | 8.28 | CCOC(=O)c1cn(-c2ccc(OC3CCN(C4CCC4)CC3)cc2)nn1 [Compound No. 1, ethyl 1-{4-[(1-cyclobutylpiperidin-4-yl)oxy]phenyl}-1H-1,2,3-triazole-4-carboxylate]
5 | 8.19 | N#Cc1ncn(-c2ccc(OC3CCN(C4CCC4)CC3)cc2)n1 [Compound No. 41, 1-{4-[(1-cyclobutylpiperidin-4-yl)oxy]phenyl}-1H-1,2,4-triazole-3-carbonitrile]
6 | 6.90 | CNC(=O)c1cn(-c2ccc(OC3CCN(C(C)(C)C)CC3)cc2)nn1 [Compound No. 30, 1-{4-[(1-tert-butylpiperidin-4-yl)oxy]phenyl}-N-methyl-1H-1,2,3-triazole-4-carboxamide]
7 | 7.74 | NC(=O)c1cn(-c2ccc(OC3CCN(C4CCC4)CC3)cc2)nn1 [Compound No. 20, 1-{4-[(1-cyclobutylpiperidin-4-yl)oxy]phenyl}-1H-1,2,3-triazole-4-carboxamide]
8 | 8.35 | CCOC(=O)c1ncn(-c2ccc(OC3CCN(C4CCC4)CC3)cc2)n1 [Compound No. 33, ethyl 1-{4-[(1-cyclobutylpiperidin-4-yl)oxy]phenyl}-1H-1,2,4-triazole-3-carboxylate]
9 | 8.29 | CCOc1cn(-c2ccc(OC3CCN(C4CCC4)CC3)cc2)nn1 [Compound No. 3, 1-cyclobutyl-4-[4-(4-ethoxy-1H-1,2,3-triazol-1-yl)phenoxy]piperidine]
10 | 7.80 | C[C@@H]1CCCN1CCCOc1ccc(-n2cc(C(=O)N3CCC3)nn2)cc1 [compound 16, azetidin-1-yl[1-(4-{3-[(2R)-2-methylpyrrolidin-1-yl]propoxy}phenyl)-1H-1,2,3-triazol-4-yl]methanone]
11 | 7.77 | c1cn(-c2ccc(OC3CCN(C4CCC4)CC3)cc2)nn1 [Compound No. 23, 1-cyclobutyl-4-[4-(1H-1,2,3-triazol-1-yl)phenoxy]piperidine]
12 | 6.91 | CC(C)(C)N1CCC(Oc2ccc(-n3cc(C(N)=O)nn3)cc2)CC1 [Compound No. 31, 1-{4-[(1-tert-butylpiperidin-4-yl)oxy]phenyl}-1H−1,2,3-triazole-4-carboxamide]
13 | 8.14 | CC(C)(C)NC(=O)c1ncn(-c2ccc(OC3CCN(C4CCC4)CC3)cc2)n1 [Compound No. 37, N-tert-butyl-1-{4-[(1-cyclobutylpiperidin-4-yl)oxy]phenyl}-1H-1,2,4-triazole-3-carboxamide]
14 | 7.62 | Cc1c(C(=O)N2CCCC2)nnn1-c1ccc(OC2CCN(C3CCC3)CC2)cc1 [compound 9, (1-{4-[(1-cyclobutylpiperidin-4-yl)oxy]phenyl}-5-methyl-1H-1,2,3-triazol-4-yl)(pyrrolidin-1-yl)methanone]
15 | 8.05 | C[C@@H]1CCCN1CCCOc1ccc(-n2cc(C(=O)N3CCCC3)nn2)cc1 [compound 15, [1-(4-{3-[(2R)-2-methylpyrrolidin-1-yl]propoxy}phenyl)-1H-1,2,3-triazol-4-yl](pyrrolidin-1-yl)methanone]
16 | 8.89 | O=C(c1ncn(-c2ccc(OC3CCN(C4CCC4)CC3)cc2)n1)N1CCCC1 [Compound No. 34, (1-{4-[(1-cyclobutylpiperidin-4-yl)oxy]phenyl}-1H-1,2,4-triazol-3-yl)(pyrrolidin-1-yl)methanone]
17 | 7.72 | O=C(Cc1cn(-c2ccc(OC3CCN(C4CCC4)CC3)cc2)nn1)N1CCC1 [compound 13, 1-(azetidin-1-yl)-2-(1-{4-[(1-cyclobutylpiperidin-4-yl)oxy]phenyl}-1H-1,2,3-triazol-4-yl)ethanone]
18 | 7.15 | CCOC(=O)c1cn(-c2ccc(OC3CCN(C(C)(C)C)CC3)cc2)nn1 [Compound No. 27, ethyl 1-{4-[(1-tert-butylpiperidin-4-yl)oxy]phenyl}-1H-1,2,3-triazole-4-carboxylate]

Row | pIC50 | SMILES
19 | 8.19 | O=C(c1cn(-c2ccc(OC3CCN(C4CCC4)CC3)cc2)nn1)N1CCOCC1 [Compound No. 25, (1-{4-[(1-cyclobutylpiperidin-4-yl)oxy]phenyl}-1H-1,2,3-triazol-4-yl)(morpholin-4-yl)methanone]
20 | 7.32 | CC(C)(C)N1CCC(Oc2ccc(-n3cc(C(=O)N4CCC4)nn3)cc2)CC1 [Compound No. 29, azetidin-1-yl(1-{4-[(1-tert-butylpiperidin-4-yl)oxy]phenyl}-1H-1,2,3-triazol-4-yl)methanone]
21 | 9.30 | O=C(c1ncn(-c2ccc(OC3CCN(C4CCC4)CC3)cc2)n1)N1CCC1 [Compound No. 35, azetidin-1-yl(1-{4-[(1-cyclobutylpiperidin-4-yl)oxy]phenyl}-1H-1,2,4-triazol-3-yl)methanone]
22 | 7.72 | CNC(=O)c1nnn(-c2ccc(OC3CCN(C4CCC4)CC3)cc2)c1C [compound 11, 1-{4-[(1-cyclobutylpiperidin-4-yl)oxy]phenyl}-N,5-dimethyl-1H-1,2,3-triazole-4-carboxamide]
23 | 6.80 | O=C(O)c1ncn(-c2ccc(OC3CCN(C4CCC4)CC3)cc2)n1 [Compound No. 38, 1-{4-[(1-cyclobutylpiperidin-4-yl)oxy]phenyl}-1H-1,2,4-triazole-3-carboxylic acid hydrochloride]
24 | 8.13 | COCc1cn(-c2ccc(OC3CCN(C4CCC4)CC3)cc2)nn1 [Compound No. 2, 1-cyclobutyl-4-{4-[4-(methoxymethyl)-1H-1,2,3-triazol-1-yl]phenoxy}piperidine]
25 | 8.11 | CC(=O)c1cn(-c2ccc(OC3CCN(C4CCC4)CC3)cc2)nn1 [compound 5, 1-(1-[4-[(1-cyclobutylpiperidin-4-yl)oxy]phenyl}-1H-1,2,3-triazol-4-yl)ethanone]
26 | 7.89 | N#Cc1cn(-c2ccc(OC3CCN(C4CCC4)CC3)cc2)nn1 [Compound No. 21, 1-{4-[(1-cyclobutylpiperidin-4-yl)oxy]phenyl}-1H-1,2,3-triazole-4-carbonitrile hydrochloride]
27 | 8.13 | CCOC(=O)c1cn(-c2ccc(OCCCN3CCC[C@H]3C)cc2)nn1 [Compound No. 24, ethyl 1-(4-{3-[(2R)-2-methylpyrrolidin-1-yl]propoxy}phenyl)-1H-1,2,3-triazole-4-carboxylate]
28 | 7.92 | CC(C)(O)c1cn(-c2ccc(OC3CCN(C4CCC4)CC3)cc2)nn1 [compound 6, 2-(1-{4-[(1-cyclobutylpiperidin-4-yl)oxy]phenyl}-1H-1,2,3-triazol-4-yl)propan-2-ol]
29 | 7.80 | O=C(Cc1cn(-c2ccc(OC3CCN(C4CCC4)CC3)cc2)nn1)N1CCCC1 [compound 12, 2-(1-[4-[(1-cyclobutylpiperidin-4-yl)oxy]phenyl}-1H-1,2,3-triazol-4-yl)-1-(pyrrolidin-1-yl)ethanone]
30 | 8.00 | O=C(c1ncn(-c2ccc(OC3CCN(C4CCC4)CC3)cc2)n1)N1CCCCC1 [Compound No. 36, (1-{4-[(1-cyclobutylpiperidin-4-yl)oxy]phenyl}-1H-1,2,4-triazol-3-yl)(piperidin-1-yl)methanone]
31 | 8.19 | CC(=O)c1ncn(-c2ccc(OC3CCN(C4CCC4)CC3)cc2)n1 [Compound No. 40, 1-(1-{4-[(1-cyclobutylpiperidin-4-yl)oxy]phenyl}-1H-1,2,4-triazol-3-yl)ethanone hydrochloride]
32 | 7.48 | CC(C)(C)N1CCC(Oc2ccc(-n3cc(C(=O)N4CCCC4)nn3)cc2)CC1 [Compound No. 28, (1-{4-[(1-tert-butylpiperidin-4-yl)oxy]phenyl}-1H-1,2,3-triazol-4-yl)(pyrrolidin-1-yl)methanone]
33 | 7.43 | Cc1c(C(=O)N2CCC2)nnn1-c1ccc(OC2CCN(C3CCC3)CC2)cc1 [compound 10, azetidin-1-yl(1-{4-[(1-cyclobutylpiperidin-4-yl)oxy]phenyl}-5-methyl-1H-1,2,3-triazol-4-yl)methanone]
34 | 6.88 | O=C(O)c1cn(-c2ccc(OC3CCN(C4CCC4)CC3)cc2)nn1 [Compound No. 17, 1-{4-[(1-cyclobutylpiperidin-4-yl)oxy]phenyl}-1H-1,2,3-triazole-4-carboxylic acid hydrochloride]
35 | 7.17 | CC(C)(C)N1CCC(Oc2ccc(-n3cc(C#N)nn3)cc2)CC1 [Compound No. 32, 1-{4-[(1-tert-butylpiperidin-4-yl)oxy]phenyl}-1H-1,2,3-triazole-4-carbonitrile]
